Laboratory results reported in patent US10165791B2, “Use of rubusoside for reducing or suppressing certain unpleasant taste impressions” (Symrise AG, priority 2010, dated 2019).

B1: miraculin: protein that in the presence of acids transforms the sour impression into a sweet taste impression (protein, UniProt P13087 30-220, looked up)
Miraculin: DSAPNPVLDIDGEKLRTGTNYYIVPVLRDHGGGLTVSATTPNGTFVCPPRVVQTRKEVDHDRPLAFFPENPKEDVVRVSTDLNINFSAFMPCRWTSSTVWRLDKYDESTGQYFVTIGGVKGNPGPETISSWFKIEEFCGSGFYKLVFCPTVCGSCKVKCGDVGIYIDQKGRRRLALSDKPFAFEFNKTVYF

Legend:
[1] = Reduction of astringent and sour impression, panel of trained tasters; type: in vivo, human; conditions: Yogurt 0.1% fat; 10 mg/kg rubusoside
Experimental: The following products, in each case without and with a flavoring composition, were assessed by a panel of trained tasters. The astringent impression and sour impression were assessed on a scale from 1 (not perceptible) to 9 (very strong) and averaged for the tasters.

[2] = own tests: taste of rubusoside in water; type: in vivo, human
Experimental: It is known that extracts from Rubus suavissimus or certain compounds isolated therefrom are able to make sweet-tasting orally consumable preparations taste even sweeter, as described in WO 2008/049256. Moreover, it is known that isolated rubusoside from Rubus suavissimus tastes perceptibly sweet starting from a concentration of approx. 25 mg/kg (equivalent to 25 ppm) (taste recognition threshold). Rubusoside can be used as a sweetener (Hirono, S.; Chou, W. H.; Kasai, R.; Tanaka, O.; Tada, T., Sweet and bitter diterpene glucosides from leaves of Rubus suavissimus. Chemical & Pharmaceutical Bulletin 1990, 38, (6), 1743-1744).

[3] = isolated rubusoside from Rubus suavissimus; equivalent to 25 ppm; cited from earlier work
[4] = in the presence of acids; cited from earlier work

Row | Molecule | Astringent impression (0-9) b) with test substance [1] | Sour impression (0-9) b) with test substance [1] | sweet taste equivalent to the sweetness of an aqueous sucrose solution ([2]; 100 mg/kg (100 ppm) in water) [%] | concentration above which a recognizably bitter taste is additionally displayed ([2]; in water) [mg/kg] | taste recognition threshold (tastes perceptibly sweet starting from) [3] | duration of the conversion of sour impression to sweet taste [4] [h]
1 | C=C1C[C@@]23CC[C@H]4[C@@](C)(CCC[C@@]4(C)C(=O)O[C@@H]4O[C@H](CO)[C@@H](O)[C@H](O)[C@H]4O)[C@@H]2CC[C@]1(O[C@@H]1O[C@H](CO)[C@@H](O)[C@H](O)[C@H]1O)C3 [rubusoside, Rubusoside] | 5 | 5.5 | 1.4 | > 100 | approx. 25 mg/kg | –
2 | B1 | – | – | – | – | – | 2 to 4
